In patent publication US20240336567A1, “PESTICIDAL AND HERBICIDAL COMPOUNDS AND METHODS OF USE THEREOF” (AG Plenus Ltd, priority 2021, published 2024):

System: not listed separately
Experiment: in vitro thermal shift (binding of compound to the target)
Conditions: thermal shift caused by binding of the compound to the (unnamed) target

Structure (SMILES) | in vitro Thermal Shift
CC(CN)Oc1ccc(F)c(C(=O)O)c1 (stereo not drawn) [Compound 101] | 13 °C
CC(C)(N)COc1cccc(C(=O)O)c1 [Compound 103] | 8 °C
CC(N)COc1ccc(Cl)c(C(=O)O)c1 (stereo not drawn) [Compound 107] | 14 °C
COC(=O)c1cccc(OCC(C)N)c1 (stereo not drawn) [Compound 110] | 4 °C
CC(CN)Nc1cccc(C(=O)O)c1 (stereo not drawn) [Compound 119] | 7 °C
NC1(COc2cccc(C(=O)O)c2)CC1 [Compound 121] | 11 °C
NC1CCCC1Oc1cccc(C(=O)O)c1 (stereo not drawn) [Compound 122] | 16 °C
NCCOc1cccc(C(=O)O)c1 [Compound 127] | 9 °C
NCCNc1ccc(Cl)c(C(=O)O)c1 [Compound 133] | 6 °C

Results, then the compound that gave them:

in vitro Thermal Shift | Structure (SMILES)
9 °C | CC(N)CNc1ccc(Cl)c(C(=O)O)c1 (stereo not drawn) [Compound 139]
5 °C | CC(N)CSc1cccc(C(=O)O)c1 (stereo not drawn) [Compound 140]
6 °C | CCOC(=O)c1cccc(OCC(C)N)c1 (stereo not drawn) [Compound 150]
5 °C | NCCSc1cccc(C(=O)O)c1 [Compound 151]
4 °C | Cc1ccc(OCCN)cc1C(=O)O [Compound 152]
13 °C | C[C@H](N)COc1cccc(C(=O)O)c1 [Compound 155]
15 °C | CCC(N)COc1cccc(C(=O)O)n1 (stereo not drawn) [Compound 168]

System: Arabidopsis thaliana
Experiment: HTPS (high throughput on soil) - Dicot - Post-emergence
Type: in vivo
Conditions: N/A: not active, read-out: HTPS - Dicot - Post Max effect
Protocol: (§1) Arabidopsis thaliana seeds were sown in 96 well plates filled with irrigated Sweet sand (10%>clay) that is washed from salts and minerals using tap water. 5-10 seeds were sown in the center of each well. 7-8 days post sowing, at 2 true leaves stage, thinning out was performed to ensure that compound application is done on a single plant per well. The plates were placed in a controlled greenhouse in a random order inside a bath which allows flooding irrigation with tap water supplemented with a fertilizer. Applied compounds were dissolved into a final solution of 50% acetone, 49.9% DDW, 0.1% tween-20. A 96 well plate was used as a stock plate for preparing application solutions for 8 repeats. Each row contained different concentrations per chemical. Maximal concentration for application was 1.5 Kg/Ha and dilution factor is 2.5. Chemical application was performed one day after thinning out in a chemical hood. 5 μL applied on first two true leaves in each well using 12 channel pipettes. Data collection: RGB (red, green, blue) data for green area per well was documented using camera. Data is collected at a few time points during the experiment: one day after thinning and before chemical application, two-, six- or nine-days post application. During the last two documentations, visual phenotyping was performed. Data analysis: Given RGB results and visual phenotype scores, a student t-test conducted to compare between treatment and control performance for continuous data (RGB) and Fisher exact test to analyze the non-continuous data (phenotypic scores). Dose-Response curves are generated for each treatment to infer ED50 and max. inhibition parameters, using treatment's log concentration range as the […] variable and normalized green area. Plate imaging performed at 11 and 18 DAA. RGB data for green area per well was documented and used to extract % inhibition. Dose-Response curves were built for each treatment to infer ED50, ED75 and ED90 parameters, using treatment's log concentration range as the independent variable and normalized green area as the dependent variable. Treatments were compared to controls performance given RGB results and using student's t-test (p-val≤0.05).

Structure (SMILES) | Emax
CC(CN)Oc1ccc(F)c(C(=O)O)c1 (stereo not drawn) [Compound 101] | 24%
CC(C)(N)COc1cccc(C(=O)O)c1 [Compound 103] | 100%
CC(N)COc1ccc(Cl)c(C(=O)O)c1 (stereo not drawn) [Compound 107] | 100%
COC(=O)c1cccc(OCC(C)N)c1 (stereo not drawn) [Compound 110] | 100%
CC(CN)Nc1cccc(C(=O)O)c1 (stereo not drawn) [Compound 119] | 33%
NC1(COc2cccc(C(=O)O)c2)CC1 [Compound 121] | 99%
NC1CCCC1Oc1cccc(C(=O)O)c1 (stereo not drawn) [Compound 122] | 100%
NCCOc1cccc(C(=O)O)c1 [Compound 127] | 100%
NCCNc1ccc(Cl)c(C(=O)O)c1 [Compound 133] | 40%
CC(N)CSc1cccc(C(=O)O)c1 (stereo not drawn) [Compound 140] | 15%
C[C@H](N)COc1cccc(C(=O)O)c1 [Compound 155] | 100%
CCC(N)COc1cccc(C(=O)O)n1 (stereo not drawn) [Compound 168] | 100%

Same assay, conditions: from normalized green area, N/A: not active

Structure (SMILES) | HTPS - Dicot - Post ED50
CC(C)(N)COc1cccc(C(=O)O)c1 [Compound 103] | 157 g/ha
CC(N)COc1ccc(Cl)c(C(=O)O)c1 (stereo not drawn) [Compound 107] | 400 g/ha
COC(=O)c1cccc(OCC(C)N)c1 (stereo not drawn) [Compound 110] | 38 g/ha
NC1(COc2cccc(C(=O)O)c2)CC1 [Compound 121] | 256 g/ha
NC1CCCC1Oc1cccc(C(=O)O)c1 (stereo not drawn) [Compound 122] | 19 g/ha
NCCOc1cccc(C(=O)O)c1 [Compound 127] | 134 g/ha
C[C@H](N)COc1cccc(C(=O)O)c1 [Compound 155] | 56 g/ha
CCC(N)COc1cccc(C(=O)O)n1 (stereo not drawn) [Compound 168] | 22 g/ha

System: Arabidopsis thaliana
Experiment: HTPS - Dicot - Pre-emergence
Type: in vivo
Conditions: N/A: not active
Protocol: as §1, with “area. These experiments are conducted similarly except that either Arabidopsis thaliana or Eragrostis teff seeds were sowed (5-10 or 5-7, respectively), plant thinning out was not performed, compound dissolved into a final solution of 50% acetone, 49.9% DDW, compound application was done at 30 μL volume per well directly on sowed soil before plant emergence and data was collected 10 or 7 days after chemical application on dicot or monocot plants, respectively.” for “area.”

Structure (SMILES) | HTPS - Dicot - Pre ED50
CC(N)COc1ccc(Cl)c(C(=O)O)c1 (stereo not drawn) [Compound 107] | 127 g/ha
COC(=O)c1cccc(OCC(C)N)c1 (stereo not drawn) [Compound 110] | 80 g/ha
NCCOc1cccc(C(=O)O)c1 [Compound 127] | 180 g/ha
CC(N)CNc1ccc(Cl)c(C(=O)O)c1 (stereo not drawn) [Compound 139] | 256 g/ha
CCOC(=O)c1cccc(OCC(C)N)c1 (stereo not drawn) [Compound 150] | 150 g/ha
C[C@H](N)COc1cccc(C(=O)O)c1 [Compound 155] | 60 g/ha

Same assay, conditions: N/A: not active, read-out: HTPS - Dicot - Pre Max effect

Structure (SMILES) | Emax
CC(CN)Oc1ccc(F)c(C(=O)O)c1 (stereo not drawn) [Compound 101] | 20%
CC(N)COc1ccc(Cl)c(C(=O)O)c1 (stereo not drawn) [Compound 107] | 100%
COC(=O)c1cccc(OCC(C)N)c1 (stereo not drawn) [Compound 110] | 100%
CC(CN)Nc1cccc(C(=O)O)c1 (stereo not drawn) [Compound 119] | 22%
NCCOc1cccc(C(=O)O)c1 [Compound 127] | 100%
NCCNc1ccc(Cl)c(C(=O)O)c1 [Compound 133] | 5%
CC(N)CNc1ccc(Cl)c(C(=O)O)c1 (stereo not drawn) [Compound 139] | 100%
CC(N)CSc1cccc(C(=O)O)c1 (stereo not drawn) [Compound 140] | 0%
CCOC(=O)c1cccc(OCC(C)N)c1 (stereo not drawn) [Compound 150] | 100%
C[C@H](N)COc1cccc(C(=O)O)c1 [Compound 155] | 100%

System: Eragrostis teff
Experiment: HTPS - Monocot - Pre-emergence
Type: in vivo
Conditions: N/A: not active
Protocol: as §1, with “area. These experiments are conducted similarly except that either Arabidopsis thaliana or Eragrostis teff seeds were sowed (5-10 or 5-7, respectively), plant thinning out was not performed, compound dissolved into a final solution of 50% acetone, 49.9% DDW, compound application was done at 30 μL volume per well directly on sowed soil before plant emergence and data was collected 10 or 7 days after chemical application on dicot or monocot plants, respectively.” for “area.”

Structure (SMILES) | HTPS - Monocot - Pre ED50
CC(N)COc1ccc(Cl)c(C(=O)O)c1 (stereo not drawn) [Compound 107] | 660 g/ha
C[C@H](N)COc1cccc(C(=O)O)c1 [Compound 155] | 170 g/ha

Same assay, conditions: N/A: not active, read-out: HTPS - Monocot - Pre Max effect

Structure (SMILES) | Emax
CC(CN)Oc1ccc(F)c(C(=O)O)c1 (stereo not drawn) [Compound 101] | 12%
CC(N)COc1ccc(Cl)c(C(=O)O)c1 (stereo not drawn) [Compound 107] | 45%
CC(CN)Nc1cccc(C(=O)O)c1 (stereo not drawn) [Compound 119] | 3%
NC1CCCC1Oc1cccc(C(=O)O)c1 (stereo not drawn) [Compound 122] | 89%
NCCOc1cccc(C(=O)O)c1 [Compound 127] | 94%
NCCNc1ccc(Cl)c(C(=O)O)c1 [Compound 133] | 0%
CC(N)CSc1cccc(C(=O)O)c1 (stereo not drawn) [Compound 140] | 33%
C[C@H](N)COc1cccc(C(=O)O)c1 [Compound 155] | 100%

System: SETVI
Experiment: In-planta LTP pre-emergence, visual phenotype
Type: in vivo, Setaria viridis
Conditions: Setaria viridis, 432 h, monocot, read-out: IG Inhibited growth (% effect)
Protocol: A basic panel of 8 weed species (Table 3) were sowed in 4×4×7 cm plastic pots containing inert sand (Sweet sand), intensively washed using osmosis water. Each specie was sowed in a separate pot. In each pot 10-15 seeds were sowed according to the specie viability. Sowing was performed one day before application. The plants were grown for 21 days in a controlled greenhouse (26±2° C. day 20±2° C. night). Hood irrigation (tap water+Shefer 5:3:8 8 mM) was given at a 50% water content by weight. Compounds were soluble in water (DDW), and commercial herbicide control was soluble in formulation B (Table 4). Application was conducted with an industrial sprayer (TeeJet 6502E nozzle) at a rate of 2 kg/ha and spray volume of […]. Pre-emergence advanced dose response experiment application was conducted at six rates between 1-0.0312 kg/ha and spray volume of […]. Percentage of emergence was evaluated at 15 DAA. Visual phenotyping was recorded using a scale of 0-6 (0: no visible effect, 6: maximum effect) at 18 DAA. All experiments included an untreated control, a solvent control and a positive control (commercial herbicide A.I.). Statistical analysis for visual phenotyping determined by a median value of ≥3.5 and Fisher test (pval≤0.05). Statistical analysis for plant emergence determined by % emergence ≥50 and T test (pval≤0.05), as well as Wilcox test (pval≤0.05).

Structure (SMILES) | pest or weed control at 2000 g/ha
COC(=O)c1cccc(OCC(C)N)c1 (stereo not drawn) [Compound 110] | 80%
